Data as given in patent US5004756A, “Anti-cancer activity potentiator” (priority 1988, dated 1991).
Converted amounts (≈) assume the structure as drawn. Read-outs that look alike come from different tables or passages of the source.

Tests used:
[1] = tested on: V79/S; assay: Colony formation (proliferation) inhibition, sensitive Chinese hamster cells (A-I Part 1); type: cell-based; conditions: Cricetulus griseus, 216 h
Procedure: (§1) Sensitive cell line V79/S and ADM-resistant cell line V79/ADM of the Chinese hamster were used, and sensitive cell line PLC/S and cholchicin-resistant cell line PLC/Col, as human hepatoma cells.
(§2) The sensitive cell lines (400 cells) or the resistant cell lines (600 cells) were each incubated for 24 hours in 10 ml of Eagle's MEM medium containing 10% bovine serum. Each of the drugs indicated in Table 1 below was dissolved in ethanol, and 50 microliters of the resulting solution was added to the medium. The incubation was further carried out for 9 days. The concentration of the drug which inhibits 50% of the colony formation (proliferation) of the tumor cells was calculated.
(§3) V79/S and V79/ADM were tested by using all of the drugs described above, but PLC/S and PLC/Col were tested by using only the malate of formula (I), adriamycin and peplomycin.
(§4) The concentrations (micrograms/ml) required to inhibit 50% of the proliferation of the tumor cells, expressed by IC50, are shown in Table 1.

[2] = tested on: V79/ADM; assay: Colony formation (proliferation) inhibition, ADM-resistant Chinese hamster cells (A-I Part 1); type: cell-based; conditions: Cricetulus griseus, 216 h
Procedure: as §1, §2, §3, §4

[3] = tested on: PLC/S; assay: Colony formation (proliferation) inhibition, sensitive human hepatoma cells (A-I Part 1); type: cell-based; conditions: Homo sapiens, 216 h
Procedure: as §1, §2, §3, §4

[4] = tested on: PLC/Col; assay: Colony formation (proliferation) inhibition, colchicin-resistant human hepatoma cells (A-I Part 1); type: cell-based; conditions: Homo sapiens, 216 h
Procedure: as §1, §2, §3, §4

[5] = tested on: clinically isolated human cancer cells (lung adenocarcinoma, lung squamous cell carcinoma, osteosarcoma, ovarian carcinoma); assay: Anti-tumor activity on clinically isolated human cancer cells, morphological changes (A-I Part 2); type: cell-based
Procedure: Lung adenocarcinoma, lung squamous cell carcinoma, osteosarcoma and ovarian carcinoma were selected as clinically isolated human cancer cells, and the anti-tumor activities of various drugs were examined. Specifically, various tumor tissues were individually cut to thin pieces by a razor, and by washing in saline by using a 1 mm mesh, the connective tissues were removed. The resulting solution was centrifuged at 1000 rpm for 1 minute to remove necrotizing substances. Washing with saline gave tumor cells.
They were incubated at 37° for 4 to 8 hours. Thereafter, pumping was carried out to disperse the tissue pieces. Then, centrifugation at 1000 rpm for 5 minutes, cell coating and Giemsa staining were performed. The anti-tumor activity of each drug was examined on the basis of observation of the morphological changes of the tumor cells under a microscope.
The experiment was conducted on two examples of each tumor cells (total 8 examples).

[6] = tested on: Lewis lung cancer cells; assay: Life prolongation of BDF1 mice with Lewis lung cancer (A-II Part 2); type: in vivo, mouse (male BDF1)
Procedure: Male BDF1 mice having a body weight of 20±2 g (6 per group) were used, and as tumor cells, Lewis lung cancer cells were transplanted under the skin of the side abdomen of each of the mice at a rate of 10^5 cells. […] The life prolongation rate of the mice in each group was determined by the treated group/non-treated control group (T/C %).

[7] = tested on: V79/S; assay: Anti-cancer activity potentiating action, colony formation, V79/S parent cells (A-III); type: cell-based, Chinese hamster; conditions: for IC50: Cricetulus griseus
Procedure: (§5) The anti-cancer activity potentiating action of the malate of formula (I) was examined using Chinese hamster cells (sensitive cell line V79/S and ADM-resistant cell line V79/ADM), human hepatoma cells (sensitive cell line PLC/S and colchicin-resistant cell line PLC/Col) and mouse leukemia cells (sensitive cell line L5178Y/S) and aclarubicin-resistant cell line L5178Y/ACR).
(§6) Of these tumor cells, the sensitive cells (400 cells) and the resistant cells (600 cells) were each incubated in 10 ml of Eagle's MEM medium containing 10% bovine serum for 24 hours, and then each of the test drugs indicated in Table 6 was added. Thereafter, the incubation was carried out for 9 days. The concentration (IC50 : micrograms/ml) of the test drug required to inhibit 50% of the colony formation (proliferation) of the tumor cells was calculated.
(§7) (A) Chinese hamster V79 cells
(§8) As anti-cancer agents, there were used adriamycin (ADM), aclarubicin (ACR), actinomycin D (ACD), 5-fluorouracil (5-FU), cytarabin (Ara-C), cisplatin (CDDP), methotrexate (MTX), mitomycin C (MMC), nimustine (ACNU), mitoxantrone, etoposide ([…]), vincristine (VCR), bleomycin (BLM) and peplomycin (PEP). For the sensitive cells, the anti-cancer agents were used in combination with 10 micrograms/ml of the malate of formula (I), and for the resistant cells, the anti-cancer agents were used in combination with the malate of formula (I) 3 micrograms/ml, 5 micrograms/ml, and 10 micrograms/ ml.

[8] = tested on: V79/ADM; assay: Anti-cancer activity potentiating action, colony formation, V79/ADM resistant cells (A-III); type: cell-based, Chinese hamster; conditions: V79/ADM; for IC50: Cricetulus griseus
Procedure: as §5, §6, §7, §8

[9] = tested on: PLC/S; assay: Anti-cancer activity potentiating action, colony formation, PLC/S parent cells (A-III); type: cell-based, human; conditions: for IC50: Homo sapiens
Procedure: as §5, §6
(§9) As anti-cancer agents, adriamycin (ADM) and peplomycin (PEP) were used in combination with the malate of formula (I) (5 micrograms/ml).

[10] = tested on: PLC/Col; assay: Anti-cancer activity potentiating action, colony formation, PLC/Col resistant cells (A-III); type: cell-based, human; conditions: for IC50: Homo sapiens
Procedure: as §5, §6, §9

[11] = tested on: L5178Y/S; assay: Anti-cancer activity potentiating action, colony formation, mouse leukemia sensitive cells (table head prints PLC/S); type: cell-based; conditions: head prints PLC/S (parent cells); for IC50: Mus musculus, L5178Y
Procedure: as §5, §6
(§10) Adriamycin (ADM) and aclarubicin (ACR) as anti-cancer agents were used in combination with 20 micrograms/ml of the malate of formula (I).

[12] = tested on: L5178Y/ACR; assay: Anti-cancer activity potentiating action, colony formation, aclarubicin-resistant mouse leukemia cells (table head prints PLC/ACR); type: cell-based; conditions: for IC50: Mus musculus, L5178Y
Procedure: as §5, §6, §10

[13] = tested on: Human stomach cancer cell line H-81; assay: Anti-cancer activity potentiating action in nude mice with human stomach cancer H-81 (A-V); type: in vivo, human tumor in ICR nude mice
From the text: ICR nude mice (4-5 weeks old; 7 per group) were used. Human stomach cancer cell line H-81 was used as tumor cells. Tissue pieces, 2 mm in square, were taken, and transplanted subcutaneously to the right back portion of the nude mice. […] The sequence of the drug administration was as follows: […] The administration was further repeated every five days from the day on which the administration was first carried out. The total number of administrations of each drug was four. […] The measurement was made on the days on which the drugs were administered, and four weeks after the start of drug administration.

[14] = tested on: human tumor cells (muscle fibrosarcoma HT-1080); assay: Anti-cancer activity potentiating action in nude mice with HT-1080 (A-VI); type: in vivo, human tumor in ICR nude mice; conditions: days 5, 10, 15, 20, day 36
Procedure: ICR nude mice, 6 per group, were used, and the experiment was conducted substantially in accordance with the procedure described in A-V.
As tumor cells, human tumor cells (muscle fibrosarcoma HT-1080) were used, and 5 days after the transplantation, drug administration was started.
The administration was further performed every 5 days from the day of starting the administration, and the total number of administrations was therefore 4.
Mitomycin C (MMC) was tested by the same way as above.
Thirty-six days after the transplantation of the tumor, a tumor mass was extracted and its weight was measured. From the difference of the weight of the tumor from the non-treated control group, the tumor growth inhibition ratio (%) was calculated.

[15] = tested on: Meth-A; assay: Tumor proliferation inhibiting activity, Meth-A (A-IV); type: in vivo, BALB/c rats; conditions: MMC 1.0 mg/kg/day, days 1-5
Procedure: Female BALB/c rats (7 weeks old), 8 per group, were used. Tumor cells (Meth-A) induced by methyl cholanthrene were transplanted intraperitoneally to the rats, and then the malate of formula (I) was administered intraperitoneally to the rats. The proliferation inhibiting activity of the malate was examined by comparing the weight of the tumor cells with that of the tumor cells in the non-treated control group.
The dose of the malate of formula (I) was 1.25, 2.5, 5.0, and 10.0 mg/kg/day. Mitomycin C (MMC) was administered as another anti-cancer agent. The weight of the tumor cells was measured, and the proliferation inhibiting activity was determined.
The weight (g) of the tumor with respect to that of the tumor in the control group (T/C, %) after 16 days from the transplantation of the tumor cells, and the number of surviving rats after 16 days are shown in Table 8.

[16] = tested on: B16 melanoma cells; assay: Life prolongation of BDF1 mice with B16 melanoma (A-II Part 1); type: in vivo, mouse (male BDF1); conditions: 0.45 mg/kg i.p., three times every 4 days
Procedure: Three to eight male BDF1 mice having a body weight of 20±3 g were used, and B16 melanoma cells were selected as tumor cells. The melanoma cells were homogenized, and the homogenate was transplanted subcutaneously to the mice in an amount of 0.5 ml/mouse. After 7 days, the malate of formula (I) in accordance with this invention and an anti-cancer agent, neocartinostatin (NCS), were intraperitoneally administered either singly or in combination three times every 4 days in a dose of 5 mg/kg and 0.45 mg/kg for each time. The life prolonging rate of the mice was determined by the treated group/non-treated control group (T/C %).

[17] = V79/S, alone, Table 6, read-out: IC50, anti-cancer agent alone
[18] = V79/S, with compound (I) 10 μg/ml
[19] = alone, Table 6, read-out: IC50, anti-cancer agent alone
[20] = read-out: IC50, anti-cancer agent alone
[21] = read-out: IC50 in combination with compound (I)
[22] = alone, Table 7 lower part, read-out: IC50, anti-cancer agent alone
[23] = with compound (I) 20 μg/ml, read-out: IC50 in combination with compound (I)

With `COc1cccc2c1C(=O)c1c(O)c3c(c(O)c1C2=O)C[C@@](O)(C(=O)CO)C[C@@H]3O[C@H]1C[C@H](N)[C@H](O)[C@H](C)O1` [ADM, adriamycin] the IC50 [1] was 0.057 mg/L (≈ 0.105 µM), the IC50 [2] was 8.8 mg/L (≈ 16.2 µM) and the IC50 [3] was 0.005 mg/L (≈ 0.0092 µM). The IC50 [4] was 0.08 mg/L (≈ 0.147 µM), the “Efficacy ratio (rated significant by Fisher's test)” value ([5]; 0.3 μg/ml) was 3/8 and the “T/C (life prolongation rate)” value ([6]; 1.25 mg/kg i.v.) was 218%. The “T/C (life prolongation rate)” value ([6]; 2.5 mg/kg i.v. (lipid emulsion calculated as malate)) was 173%, the “T/C (life prolongation rate)” value ([6]; 5.0 mg/kg i.v. (lipid emulsion calculated as malate)) was 241% and the IC50 [7, 17] was 0.057 mg/L. It also gave an IC50 ([7]; V79/S, with compound (I) 10 μg/ml, read-out: IC50 in combination with compound (I)) of 0.008 mg/L, a Potentiation activity [7, 18] of 7.1 times and an IC50 [8, 19] of 8.8 mg/L. It also gave an IC50 ([8]; with compound (I) 10 μg/ml, read-out: IC50 in combination with compound (I)) of 0.25 mg/L, a Potentiation activity ([8]; with compound (I) 10 μg/ml) of 35.2 times and an IC50 [9, 20] of 0.005 mg/L. The IC50 [9, 21] was 0.0053 mg/L, the Potentiation activity ([9]; PLC/S, with compound (I) 5 μg/ml) was 1.0 times and the IC50 [10, 20] was 0.08 mg/L. For the same molecule, the IC50 [10, 21] was 0.027 mg/L, the Potentiation activity ([10]; PLC/Col, with compound (I) 5 μg/ml) was 3.0 times and the IC50 [11, 22] was 0.048 mg/L. It also gave an IC50 [11, 23] of 0.016 mg/L, a Potentiation activity ([11]; with compound (I) 20 μg/ml) of 3.0 times and an IC50 [12, 22] of 0.06 mg/L. The IC50 [12, 23] was 0.18 mg/L, the Potentiation activity ([12]; with compound (I) 20 μg/ml) was 3.7 times and the “Tumor growth inhibition rate” value ([13]; 2 mg/kg i.v., 4 weeks later, **p < 0.1 vs control) was 45.2%. The “Tumor growth inhibition rate” value ([13]; 2 mg/kg i.v., 5 days later) was 16.5%, the “Tumor growth inhibition rate” value ([13]; 2 mg/kg i.v., 10 days later) was 45.7% and the “Tumor growth inhibition rate” value ([13]; 2 mg/kg i.v., 15 days later) was 49.5%. The “Tumor growth inhibition rate” value ([13]; ADM 5 mg/kg i.v. singly, 4 weeks later, *p < 0.5 vs control) was 59.7%, the “Tumor growth inhibition ratio” value ([14]; ADM 4 mg/kg i.v.) was 96.1% and the Tumor weight ([14]; ADM 4 mg/kg i.v.) was 0.14 ± 0.32.

In the case of `CO[C@@]12[C@H](COC(N)=O)C3=C(C(=O)C(C)=C(N)C3=O)N1C[C@@H]1N[C@@H]12` [MMC, mitomycin C], the “Efficacy ratio (rated significant by Fisher's test)” value ([5]; 0.2 μg/ml) is reported as 0/8, the IC50 [7, 21] is reported as 0.01 mg/L and the IC50 [7, 17] is reported as 0.02 mg/L. The Potentiation activity [7, 18] was 2.0 times, the IC50 [8, 19] was 0.057 mg/L and the IC50 ([8]; with compound (I) 5 μg/ml, read-out: IC50 in combination with compound (I)) was 0.011 mg/L. For the same molecule, the Potentiation activity ([8]; with compound (I) 5 μg/ml) was 5.20 times, the “Number of surviving animals” value ([15]; 16 days later) was 8/8 and the “T/C (tumor weight)” value ([15]; day 16) was 21%. For the same molecule, the “Tumor weight mean ± S.D.” value ([15]; day 16) was 0.347 ± 0.185 g, the “Tumor growth inhibition ratio” value ([14]; MMC 3 mg/kg) was 47.0% and the Tumor weight ([14]; MMC 3 mg/kg) was 1.92 ± 0.27.

B1: neocartinostatin (protein, UniProt P0A3R9 35-147, looked up)
Neocarzinostatin: AAPTATVTPSSGLSDGTVVKVAGAGLQAGTAYDVGQCAWVDTGVLACNPADFSSVTADANGSASTSLTVRRSFEGFLFDGTRWGTVDCTTAACQVGLSDAAGNGPEGVAISFN
For B1, the “T/C (life prolonging rate at M.S.T.)” value [16] was 135%.
